{"source": "patent US20220088016A1", "about": "“CANCER TREATMENT USING MULTI-TARGETED KINASE INHIBITOR IN COMBINATION OF PROTEIN KINASE BIOMARKERS” (ZHEJIANG CROWNMAB BIOTECH CO. LTD., priority 2019, published 2022)", "key": {"[1]": {"molecular_target": "ZAP70 (Homo sapiens, UniProt P43403)", "assay": "Kinase profiling", "format": "binding", "settings": "read-out: % Ctrl @ 1000 nM"}, "[2]": {"molecular_target": "RAF1 (Homo sapiens, UniProt P04049)", "assay": "Kinase profiling", "format": "binding", "settings": "read-out: % Ctrl @ 1000 nM"}, "[3]": {"molecular_target": "PIK3CA (H1047L) (Homo sapiens, UniProt P42336, H1047L)", "assay": "Kinase profiling", "format": "binding", "settings": "read-out: % Ctrl @ 1000 nM"}, "[4]": {"molecular_target": "RSK1 (Kin.Dom.2-C-terminal) (Homo sapiens, UniProt Q15418)", "assay": "Kinase profiling", "format": "binding", "settings": "read-out: % Ctrl @ 1000 nM"}, "[5]": {"molecular_target": "p38-delta (Homo sapiens, UniProt O15264)", "sequence (O15264 whole entry)": "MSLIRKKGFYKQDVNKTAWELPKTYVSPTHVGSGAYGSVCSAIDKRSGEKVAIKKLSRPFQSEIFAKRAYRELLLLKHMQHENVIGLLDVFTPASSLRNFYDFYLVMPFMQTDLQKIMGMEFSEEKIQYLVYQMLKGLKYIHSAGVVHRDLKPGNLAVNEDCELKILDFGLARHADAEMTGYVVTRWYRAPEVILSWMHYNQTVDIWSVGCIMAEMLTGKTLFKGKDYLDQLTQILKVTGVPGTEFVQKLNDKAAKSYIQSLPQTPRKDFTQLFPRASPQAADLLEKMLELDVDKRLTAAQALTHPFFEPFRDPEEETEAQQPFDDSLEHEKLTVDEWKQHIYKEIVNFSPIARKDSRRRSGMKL", "assay": "Kinase profiling", "format": "binding", "settings": "read-out: % Ctrl @ 1000 nM"}, "[6]": {"molecular_target": "TEC (Homo sapiens, UniProt P42680)", "assay": "Kinase profiling", "format": "binding", "settings": "read-out: % Ctrl @ 1000 nM"}, "[7]": {"molecular_target": "KIT (Homo sapiens, UniProt P10721)", "assay": "Kinase profiling", "format": "binding", "settings": "read-out: % Ctrl @ 1000 nM"}, "[8]": {"molecular_target": "MAPKAPK5 (Homo sapiens, UniProt Q8IW41)", "assay": "Kinase profiling", "format": "binding", "settings": "read-out: % Ctrl @ 1000 nM"}, "[9]": {"molecular_target": "CDC2L1 (Homo sapiens, UniProt P21127)", "assay": "Kinase profiling", "format": "binding", "settings": "read-out: % Ctrl @ 1000 nM"}, "[10]": {"molecular_target": "IKK-epsilon (Homo sapiens, UniProt Q14164)", "assay": "Kinase profiling", "format": "binding", "settings": "read-out: % Ctrl @ 1000 nM"}, "[11]": {"molecular_target": "YANK3 (Homo sapiens, UniProt Q86UX6)", "assay": "Kinase profiling", "format": "binding", "settings": "read-out: % Ctrl @ 1000 nM"}, "[12]": {"molecular_target": "ULK2 (Homo sapiens, UniProt Q8IYT8)", "sequence (Q8IYT8 whole entry)": "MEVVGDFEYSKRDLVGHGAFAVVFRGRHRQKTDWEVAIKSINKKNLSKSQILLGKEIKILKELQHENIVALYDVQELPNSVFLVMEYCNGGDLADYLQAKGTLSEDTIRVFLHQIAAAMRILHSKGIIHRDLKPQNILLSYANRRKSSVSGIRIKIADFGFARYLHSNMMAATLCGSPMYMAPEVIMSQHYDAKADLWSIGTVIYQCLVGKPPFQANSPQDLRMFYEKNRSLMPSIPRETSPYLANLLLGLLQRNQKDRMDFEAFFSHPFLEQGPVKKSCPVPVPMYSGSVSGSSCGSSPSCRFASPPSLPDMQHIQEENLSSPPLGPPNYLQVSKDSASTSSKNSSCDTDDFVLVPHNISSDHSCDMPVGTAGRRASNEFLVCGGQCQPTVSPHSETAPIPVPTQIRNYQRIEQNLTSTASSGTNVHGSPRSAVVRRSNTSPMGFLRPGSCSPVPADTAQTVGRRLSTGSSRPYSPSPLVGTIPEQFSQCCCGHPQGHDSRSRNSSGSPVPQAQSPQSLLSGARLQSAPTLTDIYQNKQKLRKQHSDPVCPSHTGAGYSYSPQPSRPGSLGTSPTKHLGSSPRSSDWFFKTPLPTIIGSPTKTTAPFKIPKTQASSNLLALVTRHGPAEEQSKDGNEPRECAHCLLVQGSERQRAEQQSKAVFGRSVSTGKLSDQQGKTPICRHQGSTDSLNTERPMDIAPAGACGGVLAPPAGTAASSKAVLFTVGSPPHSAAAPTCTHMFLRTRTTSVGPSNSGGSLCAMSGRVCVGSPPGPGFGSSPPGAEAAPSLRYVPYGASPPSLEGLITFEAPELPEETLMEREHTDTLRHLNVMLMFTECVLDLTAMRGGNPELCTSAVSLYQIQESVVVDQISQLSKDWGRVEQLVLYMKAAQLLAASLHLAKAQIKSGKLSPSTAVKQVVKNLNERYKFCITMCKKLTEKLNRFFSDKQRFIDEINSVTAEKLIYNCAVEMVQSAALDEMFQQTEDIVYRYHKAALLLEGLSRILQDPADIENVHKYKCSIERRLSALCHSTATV", "assay": "Kinase profiling", "format": "binding", "settings": "read-out: % Ctrl @ 1000 nM"}, "[13]": {"molecular_target": "CDKL5 (Homo sapiens, UniProt O76039)", "sequence (O76039 whole entry)": "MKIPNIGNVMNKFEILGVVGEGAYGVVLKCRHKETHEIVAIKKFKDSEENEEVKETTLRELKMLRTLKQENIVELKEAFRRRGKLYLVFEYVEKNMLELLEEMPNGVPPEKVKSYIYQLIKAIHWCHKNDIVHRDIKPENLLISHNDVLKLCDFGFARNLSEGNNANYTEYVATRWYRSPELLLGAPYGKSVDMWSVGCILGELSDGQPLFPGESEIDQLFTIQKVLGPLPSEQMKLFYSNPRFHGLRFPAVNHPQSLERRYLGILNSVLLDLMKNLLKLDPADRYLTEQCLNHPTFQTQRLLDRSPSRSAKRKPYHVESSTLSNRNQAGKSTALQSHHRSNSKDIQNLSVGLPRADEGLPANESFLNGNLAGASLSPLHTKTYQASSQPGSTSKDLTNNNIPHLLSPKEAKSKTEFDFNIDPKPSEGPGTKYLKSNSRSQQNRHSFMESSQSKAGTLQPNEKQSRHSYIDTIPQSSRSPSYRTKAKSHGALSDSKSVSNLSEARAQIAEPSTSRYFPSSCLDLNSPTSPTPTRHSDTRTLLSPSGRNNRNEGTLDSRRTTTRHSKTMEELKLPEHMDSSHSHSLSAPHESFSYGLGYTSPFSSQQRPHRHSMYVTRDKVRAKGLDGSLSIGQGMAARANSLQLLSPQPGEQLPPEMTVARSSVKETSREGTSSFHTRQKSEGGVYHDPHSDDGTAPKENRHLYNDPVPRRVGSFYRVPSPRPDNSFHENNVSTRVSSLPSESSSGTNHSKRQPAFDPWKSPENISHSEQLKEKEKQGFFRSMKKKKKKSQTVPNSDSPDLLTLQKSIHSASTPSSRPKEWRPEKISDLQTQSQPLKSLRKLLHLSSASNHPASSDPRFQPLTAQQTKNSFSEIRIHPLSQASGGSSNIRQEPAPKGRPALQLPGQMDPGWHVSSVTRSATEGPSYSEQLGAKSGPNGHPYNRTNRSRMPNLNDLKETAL", "assay": "Kinase profiling", "format": "binding", "settings": "read-out: % Ctrl @ 1000 nM"}, "[14]": {"molecular_target": "VPS34 (Homo sapiens, UniProt Q8NEB9)", "assay": "Kinase profiling", "format": "binding", "settings": "read-out: % Ctrl @ 1000 nM"}, "[15]": {"molecular_target": "ASK2 (Homo sapiens, UniProt O95382)", "sequence (O95382 whole entry)": "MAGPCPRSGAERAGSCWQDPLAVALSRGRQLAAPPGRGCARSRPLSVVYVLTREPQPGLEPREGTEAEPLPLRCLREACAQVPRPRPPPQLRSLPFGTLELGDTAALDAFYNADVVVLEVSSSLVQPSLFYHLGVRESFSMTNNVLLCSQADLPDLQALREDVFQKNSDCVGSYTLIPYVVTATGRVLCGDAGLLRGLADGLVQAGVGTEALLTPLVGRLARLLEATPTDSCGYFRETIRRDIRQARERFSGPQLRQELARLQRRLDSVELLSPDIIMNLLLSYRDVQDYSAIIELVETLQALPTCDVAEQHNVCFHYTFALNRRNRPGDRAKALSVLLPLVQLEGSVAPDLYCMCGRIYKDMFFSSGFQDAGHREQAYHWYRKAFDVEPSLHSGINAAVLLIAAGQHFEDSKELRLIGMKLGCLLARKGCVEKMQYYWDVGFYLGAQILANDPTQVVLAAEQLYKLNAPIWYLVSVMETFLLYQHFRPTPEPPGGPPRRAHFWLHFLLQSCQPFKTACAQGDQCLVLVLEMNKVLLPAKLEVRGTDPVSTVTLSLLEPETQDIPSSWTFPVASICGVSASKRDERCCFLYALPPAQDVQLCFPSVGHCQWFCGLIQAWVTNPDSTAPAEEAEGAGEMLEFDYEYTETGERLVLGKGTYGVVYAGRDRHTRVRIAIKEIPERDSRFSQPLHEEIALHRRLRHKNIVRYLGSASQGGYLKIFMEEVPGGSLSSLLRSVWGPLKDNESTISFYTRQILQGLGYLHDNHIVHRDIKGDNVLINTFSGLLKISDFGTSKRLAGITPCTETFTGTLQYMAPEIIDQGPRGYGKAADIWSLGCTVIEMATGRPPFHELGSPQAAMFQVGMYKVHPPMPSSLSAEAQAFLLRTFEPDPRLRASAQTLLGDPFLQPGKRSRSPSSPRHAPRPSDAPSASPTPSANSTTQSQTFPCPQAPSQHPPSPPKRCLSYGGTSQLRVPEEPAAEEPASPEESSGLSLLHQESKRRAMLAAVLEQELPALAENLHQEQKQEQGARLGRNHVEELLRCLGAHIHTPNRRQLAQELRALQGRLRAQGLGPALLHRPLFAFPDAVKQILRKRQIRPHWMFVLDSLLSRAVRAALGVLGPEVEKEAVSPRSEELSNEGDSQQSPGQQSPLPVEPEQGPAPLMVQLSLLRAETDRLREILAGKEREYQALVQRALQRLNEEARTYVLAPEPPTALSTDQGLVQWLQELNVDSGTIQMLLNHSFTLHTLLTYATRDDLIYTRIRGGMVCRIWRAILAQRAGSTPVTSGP", "assay": "Kinase profiling", "format": "binding", "settings": "read-out: % Ctrl @ 1000 nM"}, "[16]": {"system": "CD8 (T cell surface marker)", "assay": "CD8 IHC test in MC-38 tumor", "format": "in vivo, mouse", "settings": "MC-38 tumors; vs vehicle group", "procedure": "MC38 tumor tissues were collected at the end of the in vivo efficacy trial. The tumor tissue was then embedded in paraffin. The expression of CD3/CD4/CD8/F4-80 were tested by immunohistochemistry stain."}, "[17]": {"molecular_target": "RSK1 (Kin.Dom.1-N-terminal) (Homo sapiens, UniProt Q15418)", "sequence (Q15418 62-321 limits assumed)": "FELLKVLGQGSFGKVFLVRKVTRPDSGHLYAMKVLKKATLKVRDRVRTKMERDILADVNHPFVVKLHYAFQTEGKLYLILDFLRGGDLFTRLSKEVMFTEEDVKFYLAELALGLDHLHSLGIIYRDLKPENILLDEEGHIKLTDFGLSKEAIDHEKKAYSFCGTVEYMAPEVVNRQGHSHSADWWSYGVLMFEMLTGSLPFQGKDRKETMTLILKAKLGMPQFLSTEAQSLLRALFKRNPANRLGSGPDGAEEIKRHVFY", "assay": "Kinase profiling", "format": "binding", "settings": "read-out: % Ctrl @ 1000 nM"}, "[18]": {"molecular_target": "LZK (Homo sapiens, UniProt O43283)", "assay": "Kinase profiling", "format": "binding", "settings": "read-out: % Ctrl @ 1000 nM"}, "[19]": {"molecular_target": "BRSK2 (Homo sapiens, UniProt Q8IWQ3)", "assay": "Kinase profiling", "format": "binding", "settings": "read-out: % Ctrl @ 1000 nM"}, "[20]": {"molecular_target": "KIT (V559D) (Homo sapiens, UniProt P10721, V559D)", "assay": "Kinase profiling", "format": "binding", "settings": "read-out: % Ctrl @ 1000 nM"}, "[21]": {"molecular_target": "SIK (Homo sapiens, UniProt P57059)", "assay": "Kinase profiling", "format": "binding", "settings": "read-out: % Ctrl @ 1000 nM"}, "[22]": {"molecular_target": "HCK (Homo sapiens, UniProt P08631)", "assay": "Kinase profiling", "format": "binding", "settings": "read-out: % Ctrl @ 1000 nM"}, "[23]": {"molecular_target": "EPHB4 (Homo sapiens, UniProt P54760)", "assay": "Kinase profiling", "format": "binding", "settings": "read-out: % Ctrl @ 1000 nM"}, "[24]": {"molecular_target": "ABL1 (M351T)-phosphorylated (Homo sapiens, UniProt P00519, M351T)", "assay": "Kinase profiling", "format": "binding", "settings": "read-out: % Ctrl @ 1000 nM"}, "[25]": {"molecular_target": "CAMK2G (Homo sapiens, UniProt Q13555)", "assay": "Kinase profiling", "format": "binding", "settings": "read-out: % Ctrl @ 1000 nM"}, "[26]": {"molecular_target": "JNK1 (Homo sapiens, UniProt P45983)", "sequence (P45983 whole entry)": "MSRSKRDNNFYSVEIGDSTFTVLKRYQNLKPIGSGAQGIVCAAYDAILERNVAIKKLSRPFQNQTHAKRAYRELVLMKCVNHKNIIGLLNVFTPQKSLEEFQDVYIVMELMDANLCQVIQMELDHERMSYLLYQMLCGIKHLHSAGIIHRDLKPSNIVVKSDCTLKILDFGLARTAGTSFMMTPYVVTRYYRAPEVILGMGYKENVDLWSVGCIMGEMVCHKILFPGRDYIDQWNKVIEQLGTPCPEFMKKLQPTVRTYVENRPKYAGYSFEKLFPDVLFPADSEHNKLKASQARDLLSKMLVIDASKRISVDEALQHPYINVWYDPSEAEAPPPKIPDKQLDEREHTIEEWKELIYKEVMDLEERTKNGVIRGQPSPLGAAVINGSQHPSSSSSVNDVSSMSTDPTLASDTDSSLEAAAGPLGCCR", "assay": "Kinase profiling", "format": "binding", "settings": "read-out: % Ctrl @ 1000 nM"}, "[27]": {"molecular_target": "TNK1 (Homo sapiens, UniProt Q13470)", "sequence (Q13470 whole entry)": "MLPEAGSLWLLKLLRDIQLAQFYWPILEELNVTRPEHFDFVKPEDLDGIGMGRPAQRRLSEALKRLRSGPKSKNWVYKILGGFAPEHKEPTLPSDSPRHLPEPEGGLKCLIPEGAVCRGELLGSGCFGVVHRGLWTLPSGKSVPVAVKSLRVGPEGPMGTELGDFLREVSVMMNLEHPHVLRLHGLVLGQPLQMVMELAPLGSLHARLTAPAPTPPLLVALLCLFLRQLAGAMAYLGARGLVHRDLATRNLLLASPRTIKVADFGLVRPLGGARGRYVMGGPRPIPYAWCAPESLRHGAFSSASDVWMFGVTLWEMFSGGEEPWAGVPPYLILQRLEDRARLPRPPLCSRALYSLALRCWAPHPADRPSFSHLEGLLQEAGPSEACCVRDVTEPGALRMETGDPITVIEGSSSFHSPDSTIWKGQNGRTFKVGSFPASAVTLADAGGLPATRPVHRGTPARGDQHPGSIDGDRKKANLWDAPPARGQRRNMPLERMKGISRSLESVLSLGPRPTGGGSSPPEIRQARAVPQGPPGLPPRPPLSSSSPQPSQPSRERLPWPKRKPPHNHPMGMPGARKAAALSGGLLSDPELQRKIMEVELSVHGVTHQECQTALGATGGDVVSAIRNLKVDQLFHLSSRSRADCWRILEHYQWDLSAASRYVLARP", "assay": "Kinase profiling", "format": "binding", "settings": "read-out: % Ctrl @ 1000 nM"}, "[28]": {"molecular_target": "EPHA7 (Homo sapiens, UniProt Q15375)", "assay": "Kinase profiling", "format": "binding", "settings": "read-out: % Ctrl @ 1000 nM"}, "[29]": {"molecular_target": "STK35 (Homo sapiens, UniProt Q8TDR2)", "assay": "Kinase profiling", "format": "binding", "settings": "read-out: % Ctrl @ 1000 nM"}, "[30]": {"molecular_target": "PRKD2 (Homo sapiens, UniProt Q9BZL6)", "assay": "Kinase profiling", "format": "binding", "settings": "read-out: % Ctrl @ 1000 nM"}, "[31]": {"molecular_target": "KIT (D816V) (Homo sapiens, UniProt P10721, D816V)", "assay": "Kinase profiling", "format": "binding", "settings": "read-out: % Ctrl @ 1000 nM"}, "[32]": {"molecular_target": "EGFR (S752-I759del) (Homo sapiens, UniProt P00533, DEL752-759)", "assay": "Kinase profiling", "format": "binding", "settings": "read-out: % Ctrl @ 1000 nM"}, "[33]": {"molecular_target": "IGF1R (Homo sapiens, UniProt P08069)", "assay": "Kinase profiling", "format": "binding", "settings": "read-out: % Ctrl @ 1000 nM"}, "[34]": {"molecular_target": "AMPK-alpha2 (Homo sapiens, UniProt P54646)", "assay": "Kinase profiling", "format": "binding", "settings": "read-out: % Ctrl @ 1000 nM"}, "[35]": {"molecular_target": "T1, MERTK (Homo sapiens, UniProt Q12866)", "T1 construct": "T7 phage fusion (stated for most kinases of the panel only); made in house; host or cells: T7 phage in E. coli (BL21-derived) or HEK-293 cells", "assay": "Kinase profiling", "format": "binding", "settings": "read-out: % Ctrl @ 1000 nM"}, "[36]": {"molecular_target": "PLK4 (Homo sapiens, UniProt O00444)", "assay": "Kinase profiling", "format": "binding", "settings": "read-out: % Ctrl @ 1000 nM"}, "[37]": {"molecular_target": "ALK (L1196M) (Homo sapiens, UniProt Q9UM73, L1196M)", "assay": "Kinase profiling", "format": "binding", "settings": "read-out: % Ctrl @ 1000 nM"}, "[38]": {"molecular_target": "ACVRL1 (Homo sapiens, UniProt P37023)", "assay": "Kinase profiling", "format": "binding", "settings": "read-out: % Ctrl @ 1000 nM"}}, "data": [{"smiles": "Cc1cc(Oc2cc(NC(=O)C3CC3)ncn2)ccc1NC(=O)Nc1ccc(Cl)c(C(F)(F)F)c1", "note": "[CBT-102]", "values": [{"measurement": "remaining activity at 1 µM", "setting": "[1]", "value": 90, "unit": "%"}, {"measurement": "remaining activity at 1 µM", "setting": "[2]", "value": 3.4, "unit": "%"}, {"measurement": "remaining activity at 1 µM", "setting": "[3]", "value": 100, "unit": "%"}, {"measurement": "remaining activity at 1 µM", "setting": "[4]", "value": 94, "unit": "%"}, {"measurement": "remaining activity at 1 µM", "setting": "[5]", "value": 8.6, "unit": "%"}, {"measurement": "remaining activity at 1 µM", "setting": "[6]", "value": 92, "unit": "%"}, {"measurement": "remaining activity at 1 µM", "setting": "[7]", "value": 0, "unit": "%"}, {"measurement": "remaining activity at 1 µM", "setting": "[8]", "value": 93, "unit": "%"}, {"measurement": "remaining activity at 1 µM", "setting": "[9]", "value": 36, "unit": "%"}, {"measurement": "remaining activity at 1 µM", "setting": "[10]", "value": 100, "unit": "%"}, {"measurement": "remaining activity at 1 µM", "setting": "[11]", "value": 88, "unit": "%"}, {"measurement": "remaining activity at 1 µM", "setting": "[12]", "value": 98, "unit": "%"}, {"measurement": "remaining activity at 1 µM", "setting": "[13]", "value": 97, "unit": "%"}, {"measurement": "remaining activity at 1 µM", "setting": "[14]", "value": 80, "unit": "%"}, {"measurement": "remaining activity at 1 µM", "setting": "[15]", "value": 94, "unit": "%"}, {"measurement": "effect on T cell surface marker CD8 (IHC)", "setting": "[16]", "value": "no significant effect"}, {"measurement": "remaining activity at 1 µM", "setting": "[17]", "value": 100, "unit": "%"}, {"measurement": "remaining activity at 1 µM", "setting": "[18]", "value": 97, "unit": "%"}, {"measurement": "remaining activity at 1 µM", "setting": "[19]", "value": 100, "unit": "%"}, {"measurement": "remaining activity at 1 µM", "setting": "[20]", "value": 0, "unit": "%"}, {"measurement": "remaining activity at 1 µM", "setting": "[21]", "value": 95, "unit": "%"}, {"measurement": "remaining activity at 1 µM", "setting": "[22]", "value": 54, "unit": "%"}, {"measurement": "remaining activity at 1 µM", "setting": "[23]", "value": 18, "unit": "%"}, {"measurement": "remaining activity at 1 µM", "setting": "[24]", "value": 65, "unit": "%"}, {"measurement": "remaining activity at 1 µM", "setting": "[25]", "value": 100, "unit": "%"}, {"measurement": "remaining activity at 1 µM", "setting": "[26]", "value": 90, "unit": "%"}, {"measurement": "remaining activity at 1 µM", "setting": "[27]", "value": 52, "unit": "%"}, {"measurement": "remaining activity at 1 µM", "setting": "[28]", "value": 4.1, "unit": "%"}, {"measurement": "remaining activity at 1 µM", "setting": "[29]", "value": 93, "unit": "%"}, {"measurement": "remaining activity at 1 µM", "setting": "[30]", "value": 100, "unit": "%"}, {"measurement": "remaining activity at 1 µM", "setting": "[31]", "value": 18, "unit": "%"}, {"measurement": "remaining activity at 1 µM", "setting": "[32]", "value": 91, "unit": "%"}, {"measurement": "remaining activity at 1 µM", "setting": "[33]", "value": 95, "unit": "%"}, {"measurement": "remaining activity at 1 µM", "setting": "[34]", "value": 100, "unit": "%"}, {"measurement": "remaining activity at 1 µM", "setting": "[35]", "value": 23, "unit": "%"}, {"measurement": "remaining activity at 1 µM", "setting": "[36]", "value": 98, "unit": "%"}, {"measurement": "remaining activity at 1 µM", "setting": "[37]", "value": 94, "unit": "%"}, {"measurement": "remaining activity at 1 µM", "setting": "[38]", "value": 67, "unit": "%"}]}]}
